Consider six compounds from article PMC9995734, “Polysulfide metabolizing enzymes influence SqrR-mediated sulfide-induced transcription by impacting intracellular polysulfide dynamics” (PNAS Nexus, 2023).

One data set has as its target T1, SqrR (Rhodobacter capsulatus, UniProt D5AT91).
T1 construct: recombinant, full-length, reduced C9S protomer 12295 amu
T1 sequence (D5AT91 15-124): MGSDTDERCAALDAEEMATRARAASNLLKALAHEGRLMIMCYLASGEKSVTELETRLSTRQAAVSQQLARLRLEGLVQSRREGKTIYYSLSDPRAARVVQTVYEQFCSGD
Briefly: fluorescence anisotropy of DNA dissociation; LC-ESI-MS of adducts. The format is binding. The note with it: covalent; pseudo-first-order oxidation of C41/C107; 20-fold excess sulfane sulfur, persulfide made in situ; DNA-bound SqrR; 25 mM HEPES pH 7.0, 400 mM NaCl, 1 mM EDTA, 25°C. The source says:
fluorescence anisotropy of DNA dissociation; LC-ESI-MS of adducts on SqrR
(In general: In fluorescence polarisation assays a small probe gives low polarisation when free and higher when bound to something large.)

Data set [1] deals with T2, SQR (Rhodobacter capsulatus, UniProt D5APH8).
T2 sequence (D5APH8 1-427): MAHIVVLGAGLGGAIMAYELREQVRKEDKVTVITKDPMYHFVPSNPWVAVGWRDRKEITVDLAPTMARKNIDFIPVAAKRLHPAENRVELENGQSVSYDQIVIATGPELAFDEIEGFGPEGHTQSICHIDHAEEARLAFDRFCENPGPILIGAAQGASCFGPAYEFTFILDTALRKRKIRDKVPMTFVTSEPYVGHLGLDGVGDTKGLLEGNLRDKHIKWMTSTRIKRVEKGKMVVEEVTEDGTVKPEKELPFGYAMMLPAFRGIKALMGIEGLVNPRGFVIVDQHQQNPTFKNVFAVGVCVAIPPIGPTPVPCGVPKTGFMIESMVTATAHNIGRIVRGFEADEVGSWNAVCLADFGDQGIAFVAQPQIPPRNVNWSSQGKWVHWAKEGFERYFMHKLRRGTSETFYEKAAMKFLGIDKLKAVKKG
In words: co-purification. The format is binding. To be noted: noncovalently bound.

In data set [2] the target is T2, SQR. In words: steady-state sulfide:quinone reductase assay. Format: biochemical. To be noted: electron acceptor at 100 μM; 4 mM KCN as S0 acceptor, Na2S 0-640 μM, 100 nM SQR.
Data set [3] has as its system SqrR C9S, CysSSH-treated (oxidized) (Rhodobacter capsulatus (SB1003?)). In words: fluorescence anisotropy. The note with it: SqrR titrated into fluorescein-labeled operator in quartz cuvette without TCEP, buffer, salt, pH and temperature not given in the ….
Data set [4] deals with SqrR C9S, GSSH-treated (oxidized) (Rhodobacter capsulatus (SB1003?)). Briefly: fluorescence anisotropy. The note with it: SqrR titrated into fluorescein-labeled operator in quartz cuvette without TCEP, buffer, salt, pH and temperature not given in the ….
The test system of data set [5] is SqrR C9S (reduced) (Rhodobacter capsulatus (SB1003?)). Briefly: fluorescence anisotropy. To be noted: SqrR titrated into fluorescein-labeled operator in quartz cuvette without TCEP, buffer, salt, pH and temperature not given in the ….

Consider `N[C@@H](CSS)C(=O)O` [cysteine persulfide], for which, on SqrR, the “kox [x 10^-3 s^-1]^a / CSSH” value is listed as 3.8 ± 0.1 x 10^-3 s^-1.

In the case of `Cc1cc2nc3c(=O)[nH]c(=O)nc-3n(C[C@H](O)[C@H](O)[C@H](O)COP(=O)(O)OP(=O)(O)OC[C@H]3O[C@@H](n4cnc5c(N)ncnc54)[C@H](O)[C@@H]3O)c2cc1C` [flavin adenine dinucleotide], at SQR [1], the co-purification result is given as “recombinant R. capsulatus SQR noncovalently bound with flavin adenine dinucleotide (FAD)”. As for `N[C@@H](CCC(=O)N[C@@H](CSS)C(=O)NCC(=O)O)C(=O)O` [glutathione persulfide], on SqrR, the “kox [x 10^-3 s^-1]^a / GSSH” value is recorded as 0.86 ± 0.05 x 10^-3 s^-1. `CC1=CC(=O)c2ccccc2C1=O` [menadione]: the “steady-state sulfide:quinone reductase assay” value at SQR [2] is recorded as “the steady-state activity was higher with MD”. Same read-out and setting: then `COC1=C(OC)C(=O)C(CC=C(C)C)=C(C)C1=O` [ubiquinone-1], with “the activity with UQ-1 was also sufficient for further analyses”. With “TGACATATTCACAACTCGGAATGTAA / TTACATTCCGAGTGGTGAATATGTCA”, the Ka in data set [3] is 1.8 10^5 M-1; in data set [4] it was 2.5 10^5 M-1; in data set [5], 270 10^5 M-1.
